“Also recorded” adds a separate entry of the source. Like-named read-outs stand apart in the source and are kept apart here.
Key:
[1] = test system: voltage-gated Ca2+ channels; assay type: cell-based, human
[2] = test system: voltage-gated Ca2+ channels; assay type: cell-based, human; remark: listed apart in the source
[3] = test system: recombinant KATP channels; test: Patch-clamp recording of recombinant KATP channels in NISK 9 β-cells; assay type: cell-based, human; settings: for effect of nucleotides on recombinant KATP channels: ADP in the presence of inhibitory concentration of ATP; for effect on K+ channel in inside-out patch: NISK 9 β-cell, same inside-out patch, ATP 500 μM, diazoxide 500 μM in the presence of ATP, tolbutamide 250 μM, efaroxan 200 μM; for effect on recombinant KATP channels: NISK 9 β-cells, cell attached (n=4) and inside-out patch (n=5)
Protocol: In panel A, all data come from the same inside-out patch recording. […] When recorded using symmetrical 140 mM KCl-rich solutions on either side of the cell membrane the channel has an inwardly-retifying relationship, with an estimated inward current conductance of approximately 70 pS. See also claim 11 hereinafter.
Panels A and B were obtained under the same conditions as illustrated in FIG. 9. […] In panel B, tolbutamide is shown to inhibit diazoxide-activated KATP channels in an inside-out patch; note that when this configuration is used, ATP must be added to the inside face of the cell membrane to facilitate diazoxide-induced K^+ channel activation. Mean data from several experiments are also illustrated in panels A and B. See also claim 11 hereinafter.
All data comes from the same membrane recording: an inside-out patch record obtained from a NISK 9 β-cell. […] Closure of KATP channels was also associated with a rise in the cytosolic concentration ([Ca^2+]1), not shown. Thus, the Δ[Ca^2+]1 for tolbutamide was found, on average to be 158+/−24 nM (n=22), and for efaroxan 195+/−40 nM (n=12). See also claim 11 hereinafter.
(§1) All data were obtained from either primary cultured human islet cells (control) or from NES 2Y β-cells(transfected and untransfected) by patch-clamp techniques.
(§2) Standard KCl- and NaCl-rich solutions were used in all electophysiology recordings to provide quasi-physiological cationic gradients. Procedures used for data collection and analysis were described previously.

untransfected cells = settings: 800 μg/ml G418 (data not shown)
NISK 9 β-cells [4] = test: Ca2+ microfluorimetry (fura-2) in NISK 9 β-cells; assay type: cell-based, human; settings: for effect on cytosolic Ca2+ ([Ca2+]i): glucose n=8, n=22, KCl 40 mM n=22; for Δ[Ca2+]i, rise in the cytosolic concentration: average, tolbutamide n=22, efaroxan n=12
Protocol: (§3) Ca^2+ microfluorimetry experiments were performed with fura-2-loaded cells and intact islets as described previously.

NES 2Y β-cells [5] = test: Ca2+ microfluorimetry (fura-2) in NES 2Y β-cells; assay type: cell-based, human; settings: KCl 40 mM, tolbutamide 0.2 mM, glucose 20 mM
Protocol: as §3

NES 2Y β-cells [6] = test: Insulin release (radioimmunoassay) from NES 2Y β-cells; assay type: cell-based, human; settings: 40 mM KCl, 0.2 mM tolbutamide, glucose
Protocol: (§4) Insulin was measured by radioimmunoassay using an anti-human insulin antibody (Linco, UK) and ^125I-human insulin, as previously described.

NISK 9 β-cells [7] = test: Insulin release (radioimmunoassay) from NISK 9 β-cells; assay type: cell-based, human; settings: glucose 0.5-16 mM, KCl 40 mM, tolbutamide 0.2 mM
Protocol: NISK 9 cells (NES 2Y cells stably transfected with IUF1, Sur1 and Kir 6.2) were preincubated for 180 minutes in media containing 0.5 mM glucose. The media was then replaced with that containing the indicated concentrations of glucose, and the media samples assayed for insulin by radioimmunoassay after a further 60 minutes incubation. The data are presentative of two experiments, and show the mean +/− standard deviation of 6 separate determinations. The NISK9 cell line is shown to secrete insulin in response to changes in glucose in the physiological concentration range.
as §4

KATP channels [8] = biological target: T1, KATP channels (Homo sapiens, UniProt Q09428+Q14654); test: Patch-clamp recording of KATP channels in control human β-cells; assay type: cell-based; settings: cell attached configuration, diazoxide 500 μM, tolbutamide 200 μM
T1 construct: primary cultured human islet cells (control); endogenous in cells; host or cells: primary cultured human islet beta-cells
T1 sequence (Q09428 whole entry): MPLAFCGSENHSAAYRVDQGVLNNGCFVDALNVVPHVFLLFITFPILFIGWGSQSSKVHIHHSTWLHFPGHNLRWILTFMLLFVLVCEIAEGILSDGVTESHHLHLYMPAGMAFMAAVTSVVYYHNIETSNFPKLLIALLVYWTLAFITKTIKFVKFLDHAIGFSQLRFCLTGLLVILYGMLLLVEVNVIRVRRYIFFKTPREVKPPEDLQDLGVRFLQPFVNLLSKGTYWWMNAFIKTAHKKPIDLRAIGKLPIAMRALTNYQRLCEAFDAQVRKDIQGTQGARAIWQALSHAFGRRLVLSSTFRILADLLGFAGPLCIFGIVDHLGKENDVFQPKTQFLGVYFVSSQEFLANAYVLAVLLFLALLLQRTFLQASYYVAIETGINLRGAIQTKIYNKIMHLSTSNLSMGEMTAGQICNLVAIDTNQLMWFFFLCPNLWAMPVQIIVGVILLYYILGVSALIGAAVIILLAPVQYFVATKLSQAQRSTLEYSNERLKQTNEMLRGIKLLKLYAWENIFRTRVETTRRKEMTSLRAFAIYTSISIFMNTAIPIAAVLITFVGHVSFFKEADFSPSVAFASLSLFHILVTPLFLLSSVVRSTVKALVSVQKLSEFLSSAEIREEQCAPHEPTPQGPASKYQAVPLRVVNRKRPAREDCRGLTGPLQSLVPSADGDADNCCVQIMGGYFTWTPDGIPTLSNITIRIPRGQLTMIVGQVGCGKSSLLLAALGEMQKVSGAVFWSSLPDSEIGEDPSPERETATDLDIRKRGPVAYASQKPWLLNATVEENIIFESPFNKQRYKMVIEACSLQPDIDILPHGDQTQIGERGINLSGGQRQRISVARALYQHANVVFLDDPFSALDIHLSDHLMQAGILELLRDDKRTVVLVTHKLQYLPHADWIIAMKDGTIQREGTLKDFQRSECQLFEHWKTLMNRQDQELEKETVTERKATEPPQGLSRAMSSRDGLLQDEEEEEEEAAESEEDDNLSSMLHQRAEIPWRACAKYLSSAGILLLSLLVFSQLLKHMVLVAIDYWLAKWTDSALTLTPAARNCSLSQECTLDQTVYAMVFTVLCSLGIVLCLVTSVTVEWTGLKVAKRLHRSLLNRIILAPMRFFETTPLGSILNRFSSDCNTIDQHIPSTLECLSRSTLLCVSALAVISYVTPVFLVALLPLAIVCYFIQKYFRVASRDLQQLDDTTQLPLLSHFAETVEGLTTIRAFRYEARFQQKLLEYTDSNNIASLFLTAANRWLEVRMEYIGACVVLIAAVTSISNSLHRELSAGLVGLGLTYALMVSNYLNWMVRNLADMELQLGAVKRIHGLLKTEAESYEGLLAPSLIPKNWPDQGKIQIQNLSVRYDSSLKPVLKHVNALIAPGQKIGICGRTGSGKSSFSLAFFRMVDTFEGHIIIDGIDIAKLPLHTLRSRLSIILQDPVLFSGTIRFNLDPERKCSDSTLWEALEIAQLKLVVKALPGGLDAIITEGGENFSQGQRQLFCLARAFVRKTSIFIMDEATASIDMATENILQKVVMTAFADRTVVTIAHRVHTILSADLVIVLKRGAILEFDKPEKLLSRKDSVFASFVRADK
T1 sequence (Q14654 whole entry): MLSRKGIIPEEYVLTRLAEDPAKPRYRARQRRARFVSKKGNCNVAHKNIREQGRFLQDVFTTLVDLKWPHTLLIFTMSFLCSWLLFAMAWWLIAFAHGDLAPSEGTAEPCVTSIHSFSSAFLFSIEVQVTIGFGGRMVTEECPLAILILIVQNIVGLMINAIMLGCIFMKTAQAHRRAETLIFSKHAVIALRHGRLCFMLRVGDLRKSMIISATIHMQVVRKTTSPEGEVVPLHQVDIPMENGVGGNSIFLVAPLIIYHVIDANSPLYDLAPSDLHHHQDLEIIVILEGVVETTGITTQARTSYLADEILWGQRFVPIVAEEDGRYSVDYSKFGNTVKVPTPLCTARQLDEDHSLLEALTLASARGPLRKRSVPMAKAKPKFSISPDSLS
Source text: (In the record shown, the maximum number of coincident open ion channel events is increased from 3 to 30). Under the same experimental conditions none of these agents had any action on ion channel events in the NES 2Y β-cells. Similar data were obtained in 4 (panel A) and 18 (panel B) other control experiments, and in a total of N=10 (panel A) and n=10 (panel B) NES 2Y β-cells experiments. Note that upward deflections represent outward current events, and that the broken lines indicate the zero current level which corresponds to closure of all K^+ channels. The same ionic gradients were used for each of the experimental protocols described, and all data are plotted to the same scales in each panel.
as §1, §2

KATP channels [9] = test: Patch-clamp recording of KATP channels in NES 2Y β-cells; assay type: cell-based, human; settings: intact cells (diazoxide 0.5 mM) or cell-free patches (cocktail)
[10] = test system: voltage-gated Na+ channels; assay type: cell-based, human
[11] = test system: voltage-gated Na+ channels; assay type: cell-based, human; remark: listed apart in the source

SMILES: COC(=O)C1=C(C)NC(C)=C([N+](=O)[O-])C1c1ccccc1C(F)(F)F (racemic) [(+/−) BAY K-8644]
- effect on Ttx-insensitive currents [1]: activation
- effect on Ttx-insensitive currents [2]: activation

SMILES: Nc1ncnc2c1ncn2[C@@H]1O[C@H](COP(=O)(O)OP(=O)(O)O)[C@@H](O)[C@H]1O [ADP]
- effect of nucleotides on recombinant KATP channels ([3]; NISK β-cells, inside-out patch): activated; also recorded: reversible recovery from closure

SMILES: Nc1ncnc2c1ncn2[C@@H]1O[C@H](COP(=O)(O)OP(=O)(O)OP(=O)(O)O)[C@@H](O)[C@H]1O [ATP]
- effect on K+ channel in inside-out patch [3]: channel block
- IC50 ([3]; NISK β-cells, inside-out patch, ATP 0.005-1 mM, n=4, read-out: 50% inhibition of KATP channels): 5 to 10 µM
- effect of nucleotides on recombinant KATP channels ([3]; NISK β-cells, inside-out patch): inhibition of channels

SMILES: CN[C@@H]1[C@@H](O)[C@@H](O[C@@H]2[C@@H](O)[C@H](O[C@H]3O[C@H]([C@@H](C)O)[C@@H](O)[C@H](O)[C@H]3N)[C@@H](N)C[C@H]2N)OC[C@]1(C)O [G418]
- time to toxic cell death (untransfected cells): ≤ 12 h

SMILES: [Cl-].[K+] [KCl]
- effect on cytosolic Ca2+ ([Ca2+]i) (NISK 9 β-cells [4]): raise [Ca^2+]i
- effect on cytosolic Ca2+ ([Ca2+]i) (NES 2Y β-cells [5]): no elevation of [Ca^2+]i
- insulin release (NES 2Y β-cells [6]): fail to release insulin
- insulin secretion (NISK 9 β-cells [7]): regulated insulin secretion

SMILES: CC1=NS(=O)(=O)c2cc(Cl)ccc2N1 [diazoxide]
- effect on K+ channel in inside-out patch [3]: activation
- effect on recombinant KATP channels [3]: activated
- effect on the glucose-induced rise in [Ca2+]i (NISK 9 β-cells [4]; n=5): inhibited
- effect on spontaneously open KATP channels (KATP channels [8]): activated
- effect on KATP channel activity / ion channel events (KATP channels [9]): no response

SMILES: CCC1(C2=NCCN2)Cc2ccccc2O1 (stereo not drawn) [efaroxan]
- effect on K+ channel in inside-out patch [3]: channel inhibition
- KATP channel activity remaining, % of the immediate control value ([3]; isolated patches, 0.2 mM efaroxan, n=3): 8.5±5.6%
- Δ[Ca2+]i, rise in the cytosolic concentration (NISK 9 β-cells [4]): 195 ± 40 nM

SMILES: NC1=N[C@H](O)[C@H]2[C@H]3O[C@]4(O)O[C@@H]([C@@H](O)[C@@]2(N1)[C@@H]4O)[C@]3(O)CO [tetrodotoxin]
- effect on voltage-gated currents [10]: inhibition
- effect on voltage-gated currents [11]: inhibition

SMILES: CCCCNC(=O)NS(=O)(=O)c1ccc(C)cc1 [tolbutamide]
- effect on K+ channel in inside-out patch [3]: channel inhibition
- effect on recombinant KATP channels [3]: inhibited
- KATP channel activity remaining, % of the control value ([3]; isolated patches, 0.25 mM tolbutamide, n=3): 40.8±8.5%
- Δ[Ca2+]i, rise in the cytosolic concentration (NISK 9 β-cells [4]): 158 ± 24 nM
- effect on cytosolic Ca2+ ([Ca2+]i) (NISK 9 β-cells [4]): raise [Ca^2+]i
- effect on cytosolic Ca2+ ([Ca2+]i) (NES 2Y β-cells [5]): no elevation of [Ca^2+]i
- insulin release (NES 2Y β-cells [6]): fail to release insulin
- effect on spontaneously open KATP channels (KATP channels [8]): inhibited
- insulin secretion (NISK 9 β-cells [7]): regulated insulin secretion

Source: US6372501B1, “Glucose responsive β-cell line” (Aberdeen University, priority 1997, dated 2002)
